From patent US8859781B2, “No-releasing nonoate(nitrogen-bound)sulfonamide-linked-coxib anti-cancer agents” (Euclises Pharmaceuticals, Inc., priority 2012, dated 2014) come the findings set out here.

The test system of this assay is PGE2 levels in exudate (carrageenan-challenged air pouch). The assay is described as follows: Air pouch assay of acute inflammation measuring exudate volume and PGE2 levels in exudate in rats. The format is in vivo, Sprague-Dawley rats. As to conditions: rat air pouch; for PGE2 (pg/mL), mean in exudate / Volume (mL), mean collected exudate volume: 0.01 mmol/kg oral 2 h before 1% carrageenan, exudate 4 h after carrageenan, group mean, 5 rats/group; for PGE2 (pg/mL), mean in exudate: ELISA; for effect on the carrageenan-induced increase in PGE2 release / effect on the carrageenan-induced increase in exudate volume / reduction in collected exudate volume / reduction in exudate PGE2 release: 0.01 mmol/kg oral pretreatment; for effect on the carrageenan-induced increase in PGE2 release / effect on the carrageenan-induced increase in exudate volume: result in words; for reduction in collected exudate volume / reduction in exudate PGE2 release: vs vehicle. How it is done: Compound Testing in the Air Pouch Assay of Acute Inflammation Measuring PGE2 Levels in Exudate in Rats
Animals: Sprague-Dawley rats (Charles River Laboratories., R #3234, PO #738990, male, 160-180 g) were received, individually examined, and housed in cages of five rats each. The rats were ear notched for identification purposes.
Compounds and Dosing Solutions: The vehicle was prepared by dissolving 40 g (2-hydroxypropyl)-β-cyclodextrin (HP-β-CD, Sigma, Cat. 332593, lot MKBJ5858V) in 160 mL sterile saline for injection, USP (Hospira, lot 26-801-FW) making a 25% solution which was filter sterilized (0.2 μm, Nalgene, Cat. 151-4020, lot 1095610). A 1% carrageenan solution was prepared by dissolving […] (Fluka, Cat. 22049, lot 1318338) in hot 60 mL sterile saline for injection, USP. This solution was stored at 4-8° C. Test compounds were dissolved in DMSO (Fisher Scientific, Cat. D128-500, lot 874999) to make 75 mM stocks. 0.25 mL of compound DMSO stocks were mixed with 12.5 mL of HP-13-CD solution at 50° C. (maximum DMSO concentration was 2% of the final volume of vehicle,). Final concentration of all test compounds was 1.5 mM and compounds were dosed within 2 hours of preparation at 0.01 mmol/kg (12 […] of test compound per rat).
Day 0—Air Pouch Initiation: The rats were anesthetized in a biological cabinet, the nape of the neck was cleansed with 70% isopropanol (Butler Schein Animal Health, Cat. 002498, lot 29EMS07104547) followed by 1% povidone-iodine solution (Ricca Chemical Co., Cat. 3955-16, lot 2205469). Twenty mL of sterile (0.22 μm, Millipore, Cat. SLGP033RS, lot R2KA55925, exp August 2015) air was injected subcutaneously (SC) using a 23G×1½ inch needle fixed to a 20 mL syringe. The rats were returned to routine housing. No adverse reactions were observed.
Day 3—Air Pouch Maintenance: The rats were anesthetized in a biological cabinet, the nape of the neck was cleansed with 70% isopropanol followed by 1% povidone-iodine solution. Ten mL of sterile air was injected SC using a 23G×1½ inch needle fixed to a 20 mL syringe. The rats were returned to routine housing in clean cages. No adverse reactions were observed.
Day 6—Compound Administration and Carrageenan Insult: At commencement of the study, each rat was weighed and sorted into treatment groups of 5 rats/group based upon average weight. Each rat was dosed orally via gavage at 6.809 mL/kg (1.6 mL/235 g) with their respective test material/vehicle. Two hours after test material/vehicle administration, the rats were injected with 1.0 mL of the room temperature 1% carrageenan saline solution into the air pouch. Four hours after carrageenan injection, the rats were anesthetized and 5 mL of the exudate buffer was injected into the air pouch. The pouch was gently massaged, the exudate immediately removed, and exudate volume recorded. The exudate was collected in a serum separator tube on an ice bath. The exudates were centrifuged (refrigerated) and an aliquot of the supernatant was stored in a labeled Eppendorf tube at −80° C.
Termination of Study: Animals were euthanized via CO2 asphyxiation at the completion of the in-life portion of this study and carcasses were disposed of according to standard protocols.
Data Analysis: The exudate samples were thawed to room temperature and assayed by ELISA for PGE2 (R&D Systems, Cat. KGE004B, lot 307711). Statistical significance of treatments on mean exudate volumes are determined by comparison of means for treatment groups with vehicle group. Mean cytokine concentrations and standard deviations are determined for each group. Statistical significance of treatments on cytokine concentrations are determined for each compound group compared to vehicle group. Statistical significance (p-value) was calculated vs control groups by Student's t-Test.

As for `Cc1ccc(-c2cc(C(F)(F)F)nn2-c2ccc(S(=O)(=O)NC(=O)OCCN(C)/[N+]([O-])=N/OCOC(=O)C(C)(C)C)cc2)cc1` [Compound 202, (Z)-5,12,12-Trimethyl-1,11-dioxo-1-(4-(5-(p-tolyl)-3-(trifluoromethyl)-1H-pyrazol-1-yl)phenylsulfonamido)-2,8,10-trioxa-5,6,7-triazatridec-6-ene 6-oxide], the “PGE2 (pg/mL), mean in exudate” value stood at 4959.1 pg/mL; the “Volume (mL), mean collected exudate volume” value (“Volume (mL)” below) stood at 5.6 mL; the “effect on the carrageenan-induced increase in PGE2 release” value is on record as “did not show any effect”; the “effect on the carrageenan-induced increase in exudate volume” value is given as “did not show any effect”.

For the compound `Cc1ccc(-c2cc(C(F)(F)F)nn2-c2ccc(S(N)(=O)=O)cc2)cc1` [Celecoxib, 4-(5-(p-Tolyl)-3-(trifluoromethyl)-1H-pyrazol-1-yl)benzenesulfonamide, reference compound], the “PGE2 (pg/mL), mean in exudate” value stood at 907.1 pg/mL; the “Volume (mL)” value amounted to 4.6 mL; the “reduction in collected exudate volume” value is 19%; the “reduction in exudate PGE2 release” value is reported as 80%.

Turning to `CN(CCO)/[N+]([O-])=N/OCOC(=O)C(C)(C)C` [Compound N402, (Z)-3-(2-Hydroxyethyl)-3-methyl-1-((pivaloyloxy)methoxy)triaz-1-ene 2-oxide], the “PGE2 (pg/mL), mean in exudate” value is 3782.4 pg/mL; the “Volume (mL)” value was found to be 5.4 mL; the “effect on the carrageenan-induced increase in PGE2 release” value is recorded as “did not show any effect”; the “effect on the carrageenan-induced increase in exudate volume” value is reported as “did not show any effect”.

As to `Cc1ccc(-c2cc(C(F)(F)F)nn2-c2ccc(S(=O)(=O)NC(=O)CN(C)/[N+]([O-])=N/OCOC(=O)C(C)(C)C)cc2)cc1` [Compound 602, (Z)-3-Methyl-3-(2-oxo-2-(4-(5-(p-tolyl)-3-(trifluoromethyl)-1H-pyrazol-1-yl)phenylsulfonamido)ethyl)-1-((pivaloyloxy)methoxy)triaz-1-ene 2-oxide], the “PGE2 (pg/mL), mean in exudate” value was found to be 1915.2 pg/mL; the “Volume (mL)” value turned out to be 4.5 mL; the “reduction in collected exudate volume” value is given as 20%; the “reduction in exudate PGE2 release” value came out at 56%.
